Test system: Jurkat T cells
Format: cell-based, human
Conditions: IL-2 production level in treated group compared to control group; 48 hours treatment, then anti-CD3/anti-CD28 12 hours
Excerpt: Two preliminary screens were designed and performed.
To construct “blood chemical compound library for cell-based screening purposes, components such as antibodies that are difficult to distinguish due to a wide variety, and some supplements that only function at a whole organism level including fish oils and herbs were excluded. Physiological ranges of serum levels of individual blood chemicals are available in the human metabolome database (https://hmdb.ca/) and applied in the experimental design. For first screen 1a, Jurkat T cells were treated with blood chemical library for 48 hours and then activated with 2.5 μg/mL anti-CD3 and 0.5 μg/mL anti-CD28 antibodies for another 12 hours, followed by measurement of IL-2 level in medium supernatant using ELISA kit (Biolegend). For first screen 1b, 1×10^5 PD-1^+ Jurkat T cells were co-cultured with 2×10^4 H596 (PD-L1^+) cells in a well of 96-well plate for 60 hours, and then activated with 2.5 μg/mL anti-CD3 and 0.5 μg/mL anti-CD28 antibodies for another 12 hours, followed by measurement of IL-2 level in medium supernatant using ELISA kit. Please also refer to Resources Table and Table 1-2 for more details.

Compound	Relative changed percentage (%)
c1cncnc1 [PYRIMIDINE]	4.127
CC(=O)C(=O)O [PYRUVIC ACID]	10.42
CCCCCCCCCCCCCCCC(=O)O [Palmitic Acid]	−2.643
CCCCCC/C=C\CCCCCCCC(=O)O [Palmitoleic acid]	54.63
O=C([O-])CC(O)(CC(=O)[O-])C(=O)[O-].[K+].[K+].[K+] [Potassium Citrate]	58.7511
O=C([O-])[C@H](O)[C@@H](O)[C@H](O)[C@H](O)CO.[K+] [Potassium Gluconate]	97.7133
O=P([O-])([O-])O.[K+].[K+] [Potassium Phosphate Dibasic]	177.4846
C/C=C/C=C/C(=O)[O-].[K+] [Potassium sorbate]	−2.288
CC(=O)O[C@H]1CC[C@@]2(C)C(=CC[C@H]3[C@@H]4CC[C@H](C(C)=O)[C@@]4(C)CC[C@@H]32)C1 [Pregnenolone Acetate]	82.91
COc1cc(/C=C/c2ccc(O)cc2)cc(OC)c1 [Pterostibene]	6.874
Cc1ncc(CO)c(C=O)c1O.Cl [Pyridoxal Hydrochloride]	7.787
Cc1ncc(CO)c(CO)c1O.Cl [Pyridoxine Hydrochloride]	−17.45
O=c1c(O)c(-c2ccc(O)c(O)c2)oc2cc(O)cc(O)c12 [Quercetin]	−4.501
Oc1ccc(C=Cc2cc(O)cc(O)c2)cc1 [Resveratrol]	13.16
C[C@@H]1O[C@@H](OC[C@H]2O[C@@H](Oc3c(-c4ccc(O)c(O)c4)oc4cc(O)cc(O)c4c3=O)[C@H](O)[C@@H](O)[C@@H]2O)[C@H](O)[C@H](O)[C@H]1O [Rutoside trihydrate]	14.9881
O=C([O-])O.[Na+] [SODIUM BICARBONATE]	50.35
[Br-].[Na+] [SODIUM BROMIDE]	−26.98
[Cl-].[Na+] [SODIUM CHLORIDE]	36.53
O=S(=O)([O-])[O-].[Na+].[Na+] [SODIUM SULFATE]	38.99
O=C(O)CCC(=O)O [SUCCINIC ACID]	4.14
OC[C@H]1O[C@@](CO)(O[C@H]2O[C@H](CO)[C@@H](O)[C@H](O)[C@H]2O)[C@@H](O)[C@@H]1O [SUCROSE]	70.45
[F-].[Na+] [Sodium Fluoride]	−43.81

Compound	Relative changed percentage (%)
[Na+].[Na+].[O]=[Mo](=[O])([O-])[O-] [Sodium Molybdate]	22.1968
O=C([O-])CC(O)(CC(=O)[O-])C(=O)[O-].[Na+].[Na+].[Na+] [Sodium citrate]	13.84
CCCCCCCCCCCCCCCCCC(=O)O [Stearic Acid]	38.77
CC/C=C\C/C=C\C/C=C\C/C=C\CCCCC(=O)O [Stearidonic Acid]	109.3
Cn1cnc2c1c(=O)[nH]c(=O)n2C [THEOBROMINE]	25.42
Cc1ncc(C[n+]2csc(CCOP(=O)(O)OP(=O)(O)O)c2C)c(N)n1 [TIIIAMINE PYROPIIOSPIIATE]	9.753
[Cl][Sn][Cl] [TIN(II) CHLORIDE/Tin, TIN(II) CHLORIDE]	18.86
CC1=CC(=O)C(C(C)C)=CC1=O [Thymoquinone]	4.558
C[N+](C)(C)CC(=O)[O-] [Trimethylglycine]	9.459
O=c1cc[nH]c(=O)[nH]1 [URACIL]	2.457
NC(N)=O [UREA]	−0.3112
O=c1[nH]c(=O)c2[nH]c(=O)[nH]c2[nH]1 [URIC ACID]	−6.651
COc1c(O)c(C)c(C/C=C(\C)CC/C=C(\C)CC/C=C(\C)CC/C=C(\C)CC/C=C(\C)CC/C=C(\C)CC/C=C(\C)CC/C=C(\C)CC/C=C(\C)CCC=C(C)C)c(O)c1OC [Ubiquinol]	2.165
CC1=C(C/C=C(\C)CCC[C@H](C)CCC[C@H](C)CCCC(C)C)C(=O)c2ccccc2C1=O [VITAMIN K1]	10.13
O=S(=O)([O-])[O-].[O]=[V+2] [Vanadylsulfate]	7.094
[Cl-].[Cl-].[Zn+2] [ZINC CHLORIDE]	13.34
CC1=C(/C=C/C(C)=C/C=C/C(C)=C/C=C/C=C(C)/C=C/C=C(C)/C=C/C2=C(C)C[C@@H](O)CC2(C)C)C(C)(C)C[C@H](O)C1 [Zcaxanthin]	−1.652
O=C([O-])CC(O)(CC(=O)[O-])C(=O)[O-].O=C([O-])CC(O)(CC(=O)[O-])C(=O)[O-].[Zn+2].[Zn+2].[Zn+2] [Zinc Citrate]	−2.073
[O]=[Zn] [Zinc Oxide]	3.627
CC1=C(/C=C/C(C)=C/C=C/C(C)=C/C=C/C=C(C)/C=C/C=C(C)/C=C/C2=C(C)CCCC2(C)C)C(C)(C)CCC1 [all trans B carotene]	35.08
O=C(O)CCCCC1CCSS1 (stereo not drawn) [alpha-lipoic acid]	54.62
O=C(O)CCCC[C@@H]1SC[C@@H]2NC(=O)N[C@@H]21 [d-Biotin]	29.84

Compound	Relative changed percentage (%)
CCCCC/C=C\C/C=C\CCCCCCCC(=O)O [linoleic acid]	−9.42
O=[Se](O)O [sodium selenite]	13.27
[Cl-].[Cl-].[Sr+2] [strontium chloride]	30.89
O=C(O)[C@@H]1C[C@@H](O)CN1 [trans-4-Hydroxy-L-proline]	5.281
N[C@@H](Cc1cc(I)c(Oc2ccc(O)c(I)c2)c(I)c1)C(=O)[O-].[Na+] [′,5-TRIIODO-L-THYRONINE SODIUM SALT]	−13.42
(−)-EPINEPHRINE	53.12
ADENINE DI[…] SALT HYDRAT	−0.3704
ALPHA 1 ANTITRYPSIN, HUMAN PLASMA	−10.6
ARG8-VASOPRESSIN ACETATE SALT	−7.61
Alpha-Tocopherol [(+/−)-A-TOCOPHEROL/Alpha-Tocopherol]	40.65
Bilirubin Mixed Isomers	−37.62
Bromelain from pineapple stem	16.0114
C-PEPTIDE FRAGMENT 3-33, HUMAN [C-PEPTIDE FRAGMENT 3-33, HUMAN/C-peptide]	−11.7
CELLULOSE FIBROUS	−13.2
CHITIN	5.909
CHONDROITIN SULFATE, A SODIUM SALT	9.195
Chondroitin sulfate sodium	−11.46
Chromium picolinate	−4.067
Collagen type II	8.555
Copper Gluconate	4.0672
D-(+)-MALTOSE MONOHYDRATE	−4.914

Source: US20250221953A1 (The University of Chicago, priority 2022, published 2025)
